Source: US11319320B2, “PIM kinase inhibitor compositions, methods, and uses thereof” (Snap Bio, Inc., priority 2017, dated 2022)
Values joined by “and” are separate entries in the source; they are usually repeats but may differ in a detail not shown here. Equal values may be shown once. Read-outs that look alike come from different tables or passages of the source.

Tests used:
[1] = molecular target: T1, PIM1 (Homo sapiens, UniProt P11309); assay: KINOMEscan competition binding assay (Kd)
[2] = molecular target: T2, PIM2 (Homo sapiens, UniProt Q9P1W9); assay: KINOMEscan competition binding assay (Kd); conditions: run in duplicate
[3] = molecular target: T3, PIM3 (Homo sapiens, UniProt Q86V86); assay: KINOMEscan competition binding assay (Kd); conditions: run in duplicate
[4] = molecular target: T2, PIM2; assay: Biochemical kinase assay, radiolabeled ATP filter binding (Reaction Biology); conditions: 10 μM ATP, peptide substrate […]
[5] = molecular target: T3, PIM3; assay: as above; conditions: 10 μM ATP, peptide substrate RSRHSSYPAGT
[6] = molecular target: T1, PIM1; assay: as above; conditions: 10 μM ATP, peptide substrate […]
[7] = tested on: DU145; assay: Cell Titer-Glo 2.0 luminescent cell viability assay; format: cell-based; conditions: Homo sapiens, DU-145; 72 hour incubation, cell viability (ATP luminescence)
Method: (§1) To obtain growth inhibition data of endodermal cancer cells for PIM kinase inhibitors, Compound 122 was tested against SNU-16, HepG2, MIA PaCa-2, SW480, DU145, HEK-293, PANC-1, and THLE-3 cell lines using CELL TITER-GLO® 2.0 Luminescent Cell Viability Assay (Promega Corporation, Madison, Wis.) at Reaction Biology Corporation (Maven, Pa.). All cell lines were purchased from American Type Culture Collection (ATCC, Manassas, Va.) and maintained in the recommended culture media in the presence of 10% fetal bovind serum, […] of penicillin and 100 µg/mL of streptomycin at 37° C. in a humidified atmosphere of 5% CO2 and 95% air. To initiate the growth inhibition study, Compound 122 was diluted in DMSO solution with 10-dose and 3-fold dilutions in a source plate starting at 50 mM. […] The cells in the cell culture plates were incubated with the compounds at 37° C. for 72 hours in a humidified atmosphere of 5% CO2 and 95% air. After a 72 hour incubation period, 25 μl of Cell Titer Glo 2.0 reagent was added to each well. The contents were mixed on an orbital shaker for 2 minutes and incubated at room temperature for 15 minutes to stabilize the luminescent signal. Luminescence was recorded by Envision 2104 Multilabel Reader (PerkinElmer, Santa Clara, Calif.). The number of viable cells in culture was determined based on quantitation of the ATP present in each culture well. […] Table 5 lists the IC50 values for Compound 122 in the tested cell lines.

[8] = tested on: HEK-293; assay: as above; format: cell-based; conditions: Homo sapiens, HEK293; 72 hour incubation, cell viability (ATP luminescence)
Method: as §1

[9] = tested on: HepG2; assay: as above; format: cell-based; conditions: Homo sapiens, 72 hour incubation, cell viability (ATP luminescence)
Method: as §1

[10] = tested on: MIA PaCa-2; assay: as above; format: cell-based; conditions: Homo sapiens, 72 hour incubation, cell viability (ATP luminescence)
Method: as §1

[11] = tested on: SNU-16; assay: as above; format: cell-based; conditions: Homo sapiens, 72 hour incubation, cell viability (ATP luminescence)
Method: as §1

[12] = tested on: SW480; assay: as above; format: cell-based; conditions: Homo sapiens, 72 hour incubation, cell viability (ATP luminescence)
Method: as §1

[13] = tested on: THLE-3; assay: as above; format: cell-based; conditions: THLE3; 72 hour incubation, cell viability (ATP luminescence)
Method: as §1

[14] = tested on: PANC-1; assay: as above; format: cell-based, human; conditions: 72 hour incubation, cell viability (ATP luminescence)
Method: To obtain growth inhibition data of endodermal cancer cells for PIM kinase inhibitors, Compound 122 was tested against SNU-16, HepG2, MIA PaCa-2, SW480, DU145, HEK-293, PANC-1, and THLE-3 cell lines using CELL TITER-GLO® 2.0 Luminescent Cell Viability Assay (Promega Corporation, Madison, Wis.) at Reaction Biology Corporation (Maven, Pa.). All cell lines were purchased from American Type Culture Collection (ATCC, Manassas, Va.) and maintained in the recommended culture media in the presence of 10% fetal bovind serum, […] of penicillin and 100 µg/mL of streptomycin at 37° C. in a humidified atmosphere of 5% CO2 and 95% air. To initiate the growth inhibition study, Compound 122 was diluted in DMSO solution with 10-dose and 3-fold dilutions in a source plate starting at 50 mM. […] The cells in the cell culture plates were incubated with the compounds at 37° C. for 72 hours in a humidified atmosphere of 5% CO2 and 95% air. After a 72 hour incubation period, 25 μl of Cell Titer Glo 2.0 reagent was added to each well. The contents were mixed on an orbital shaker for 2 minutes and incubated at room temperature for 15 minutes to stabilize the luminescent signal. Luminescence was recorded by Envision 2104 Multilabel Reader (PerkinElmer, Santa Clara, Calif.). The number of viable cells in culture was determined based on quantitation of the ATP present in each culture well. […]

[15] = competition binding, run in duplicate, read-out: Kd PIM1
[16] = competition binding, read-out: Kd PIM3

Kd [1, 15] [µM]	Kd [2] [nM]	Kd [3, 16]	IC50 [4] [nM]	IC50 [5] [nM]	SMILES	further results
0.7	150	48 nM	–	–	O=C1NC(=O)c2c1c1c3ccc(F)cc3[nH]c1c1[nH]c3cc(F)ccc3c21 [Compound 130]	–
> 10	> 10000	> 10000 nM	–	–	O=C1NC(=O)c2c1c1c3ccc(Br)cc3[nH]c1c1[nH]c3cc(Br)ccc3c21 [Compound 138]	–
> 10	> 10000	> 10000 nM	–	–	N#Cc1ccc2c(c1)[nH]c1c3[nH]c4cc(C#N)ccc4c3c3c(c21)C(=O)NC3=O [Compound 146]	–
> 10	> 10000	> 10000 nM	–	–	O=C1NC(=O)c2c1c1c3cc(Br)ccc3[nH]c1c1[nH]c3ccc(Br)cc3c21 [Compound 137]	–
0.011	9	3 nM	5.4	0.03	O=C1NC(=O)c2c1c1c3ccc(O)cc3[nH]c1c1[nH]c3cc(O)ccc3c21 [Compound 122]	IC50 [6]: 0.5 nM; IC50 [7]: 2330 nM; IC50 [8]: 2700 nM; IC50 [9]: 970 nM; IC50 [10]: 4810 nM; IC50 [11]: 700 nM; IC50 [12]: 2890 nM; IC50 [13]: 4620 nM; IC50 PANC-1 [14]: no inhibition

Further lines, the compound ahead of its results:

SMILES	Kd [1, 15] [µM]	Kd [2] [nM]	Kd [3, 16]	IC50 [4] [nM]	IC50 [5] [nM]	further results
CN(C)C[C@@H]1CCn2cc(c3ccccc32)C2=C(C(=O)NC2=O)c2cn(c3ccccc23)CCO1 [Ruboxistaurin, ruboxistaurin, reference compound]	–	–	–	7650	10	–
O=C1NC(=O)c2c1c1c3cccc(Br)c3[nH]c1c1[nH]c3c(Br)cccc3c21 [Compound 139]	> 3	> 3000	> 3000 nM	–	–	–
O=C1NC(=O)c2c1c1c3ccccc3[nH]c1c1[nH]c3ccccc3c21 [Arcyriaflavin A, 12,13-dihydro-5H-indolo[2,3-a]pyrrolo[3,4-c]carbazole-5,7(6H)-dione, reference compound]	0.021	19	2 nM and 1.9 nM	21	0.3	IC50 [6]: 2.2 nM
N#Cc1cccc2c1[nH]c1c3[nH]c4c(C#N)cccc4c3c3c(c21)C(=O)NC3=O [Compound 147]	> 3	> 3000	> 3000 nM	–	–	–
O=C1NC(=O)c2c1c1c3cc(F)ccc3[nH]c1c1[nH]c3ccc(F)cc3c21 [Compound 129, 3,9-difluoro-arcyriaflavin A]	–	77	27 nM	–	–	Kd ([1]; text value printed in μM, read-out: Kd for PIM1): 2.5 µM
O=C1NC(=O)c2c1c1c([nH]c3cccc(F)c31)c1[nH]c3cccc(F)c3c21 [Compound 128]	0.28	260	24 nM	–	–	–
COC(=O)[C@@]1(O)C[C@H]2O[C@]1(C)n1c3ccccc3c3c4c(c5c6ccccc6n2c5c31)C(=O)NC4 [Compound K252a, K252a, reference compound]	–	–	–	–	–	Kd ([3]; Kd PIM3, competition binding): ~10 nM
O=C1NC(=O)c2c1c1c3cccc(F)c3[nH]c1c1[nH]c3c(F)cccc3c21 [Compound 131]	6.3	2600	130 nM	–	–	–
O=C1NC(=O)c2c1c1c3ccccc3[nH]c1c1c2c2ccccc2n1CCN1CCOCC1 [Compound 3, 12,13-dihydro-12-(2-(4-morpholine)ethyl)-5H-Indolo[2,3-a]pyrrolo[3,4-c]carbazole-5,7(6H)-dione]	–	–	–	138	0.2	IC50 [6]: 1.6 nM
O=C1NC(=O)c2c1c1c3cccc(O)c3[nH]c1c1[nH]c3c(O)cccc3c21 [Compound 123]	0.13	84	6.4 nM	55	0.2	IC50 [6]: 3.9 nM
